Measured values as given in US4200748A, “Pyrido[1',2':4,5][1,4]oxazino[2,3-b]quinoxalines and pyrrolo[1',2':4,5][1,4]oxazino[2,3-b]quinoxalines” (American Cyanamid Company, priority 1979, dated 1980).

Tested on: brain receptors (3H-diazepam binding)
Assay: Inhibition of the binding of 3H-diazepam to the brain receptors (rat frontal cortex P2-synaptosomal fraction)
Parameters: species or system male albino rats of the Wistar strain
Conditions: 3H-diazepam 1.5 nM, pH 7.4, 20 minutes in ice; for % Inhibition of Diazepam Binding: test concentration not given; for IC50: inhibition of 3H-diazepam binding
Text: A test used to measure anxiolytic activity comprises measurement of the ability of test compounds to inhibit the binding of ^3 H-diazepam to the brain receptors of warm-blooded animals. The test is described by R. F. Squires in Nature, 266, No. 21, page 732 (April 1977). The animals used were male albino rats of the Wistar strain, weighing 150-200 g. each from Royalhart Farms. Diazepam (methyl-^3 H) was obtained from New England Nuclear. The test compounds were solubilized in either dimethylformamide, acetic acid, ethanol or hydrochloric acid. The frontal cortex of rats was homogenized gently in 20 volumes of ice-cold 0.32 M. sucrose, centrifuged twice at 1000 g. for 10 minutes and then recentrifuged at 30,000 g. for 20 minutes to produce a crude P2 -synaptosomal fraction. The P2 -fraction was rehomogenised, twice the original volume, in hypotonic 50 mM. Tris.HCl (pH 7.4). The binding assay consisted of 300 .parallel.l. of the P2 -fraction suspension (0.350 mg.), 100 .parallel.l. of test drug and 100 μl. of ^3 H-diazepam (1.5 nM.), which was added to 1.5 ml. of 50 mM. Tris.HCl (pH 7.4). Non-specific binding controls and total binding controls received 100 μl. of diazepam (3 μm.) and 100 μl. of deionized water, respectively, in place of the test compound. Incubation for 20 minutes proceeded in ice and was terminated by filtration, under vacuum, through Whatman GF/C glass fiber filters. The filters were washed twice with 5 ml. of ice-cold 50 mM. Tris.HCl (pH 7.4) and placed in scintillation vials. After drying at 50°-60° C. for 30 minutes, 10 ml. of Beckman Ready-Solve HP was added and the radioactivity determined in a Beckman Scintillation Counter.

SMILES: FC(F)(F)c1ccc2nc3c(nc2c1)OCC1CCCCN31 (stereo not shown) [1,2,3,4,4a,5-Hexahydro-9-trifluoromethylpyrido[1',2':4,5][1,4]oxazino[2,3-b]quinoxaline]
- % Inhibition of Diazepam Binding: 90%
- IC50: 352 nM

SMILES: c1ccc2nc3c(nc2c1)OCC1CCCN31 (single isomer, unassigned) [2,3,3a,4-Tetrahydro-1H-pyrrolo[1',2':4,5][1,4]oxazino[2,3-b]quinoxaline]
- % Inhibition of Diazepam Binding: 87%
- IC50: 87 nM

SMILES: Clc1ccc2nc3c(nc2c1)N1CCCCC1CO3 (stereo not shown) [10-chloro-1,2,3,4,4a,5-hexahydropyrido[1',2':4,5][1,4]oxazino[2,3-b]quinoxaline]
- % Inhibition of Diazepam Binding: 95%
- IC50: 22 nM

SMILES: O=[N+]([O-])c1cccc2nc3c(nc12)N1CCCCC1CO3 (stereo not shown) [1,2,3,4,4a,5-hexahydro-11-nitropyrido[1',2':4,5][1,4]oxazino[2,3-b]quinoxaline]
- % Inhibition of Diazepam Binding: 72%
- IC50: 210 nM

SMILES: Nc1ccc2nc3c(nc2c1)OCC1CCCCN31 (stereo not shown) [9-Amino-1,2,3,4,4a,5-hexahydropyrido[1',2':4,5][1,4]oxazino[2,3-b]quinoxaline]
- % Inhibition of Diazepam Binding: 93%
- IC50: 39 nM

SMILES: Clc1ccc2nc3c(nc2c1)OCC1CCCCN31 (stereo not shown) [9-Chloro-1,2,3,4,4a,5-hexahydropyrido[1',2':4,5][1,4]oxazino[2,3-b]quinoxaline]
- % Inhibition of Diazepam Binding: 97%
- IC50: 14 nM

SMILES: CN(C)C=Nc1cccc2nc3c(nc12)N1CCCCC1CO3 (stereo not shown) [N'-(1,2,3,4,4a,5-hexahydropyrido[1',2':4,5][1,4]oxazino[2,3-b]quinoxalin-11-yl)-N,N-dimethylformamidine]
- % Inhibition of Diazepam Binding: 96%
- IC50: 55 nM

SMILES: Nc1cccc2nc3c(nc12)N1CCCCC1CO3 (stereo not shown) [11-Amino-1,2,3,4,4a,5-hexahydropyrido[1',2':4,5][1,4]oxazino[2,3-b]quinoxaline]
- % Inhibition of Diazepam Binding: 98%
- IC50: 20 nM
